{"source": "patent US7572872B2", "about": "“Biomimetic materials comprising polyhedral oligomeric silsesquioxanes” (priority 2005, dated 2009)", "key": {"fibroblasts": {"test_system": "fibroblasts", "test": "Fibroblast adhesion on POSS-coated titanium", "type": "cell-based", "conditions": "from Table 2 findings", "experimental": "(§1) [(RSiO1.5)4(Rl(OH)SiO1.0)3]Σ7 (1 g) was dissolved in dichlormethane and sprayed onto metallic titanium samples. The samples were then dried at 110° C. for 2 hours.\n(§2) Experimental samples with 50% surface coverage of POSS were exposed to osteoblasts and fibroblasts cultured in Dulbecco's modified eagle medium (DMEM), supplemented with 10% fetal bovine serum (FBS) and 1% penicillin streptomycin (P/S), under standard cell culture conditions (sterile chamber maintained at 37° C. and a humidified environment: 5% CO2/95% air). The stock solutions were supplied by HyClone.\n(§3) For this purpose, osteoblasts, and fibroblasts were separately seeded (10,000 cells cm^2) onto the experimental titanium substrate, and were allowed to adhere in standard cell culture conditions for 48 hours. After the prescribed time period, substrates were rinsed three times using phosphate-buffered saline (PBS) to remove non-adherent cells. The adhered cells were fixed with formaldehyde (Fisher), stained with Hoechst 33 258 dye (Sigma), and counted using fluorescence microscopy (365 nm excitation and 400 nm emission wavelengths). The findings in Table 2 indicate a clear differentiation in binding a cellular modulation relative to the type of R group present on the cage.\n(§4) All experiments were run in triplicate, and repeated three different times."}, "[1]": {"test": "Dispersion of POSS compounds in personal care and cosmetic products", "type": "physicochemical", "conditions": "approximately 5% POSS by weight", "experimental": "In light of the observed cellular differentiation and modulation promoted by nanostructured chemicals, a series of POSS, POS and POMS were added to conventional personal care and cosmetic products. […] A summary of the products and finding is listed below.\nEach sample prepared consisted of approximately 5% of POSS by weight and was inspected visually and by biometric techniques for the dispersion of the POSS compound. The products in which the POSS compounds could be dispersed without being felt are listed under the POSS compounds studied."}, "[2]": {"test_system": "cuts through the endermal skin layer", "test": "FibroPOSS treatment of cuts in a human arm", "type": "in vivo", "experimental": "Based upon the differentiation from Example 1, a series of in vivo FibroPOSS examinations was made using [(isoOctylSiO1.5)4(isoOctyl(OH)SiO1.0)3]Σ7 and [([…])8]Σ8. In a human arm a series of six cuts were made through the endermal skin layer.\nThe top two cuts were treated with 100% [(isoOctylSiO1.5)4(isoOctyl(OH)SiO1.0)3]Σ7(SO1455) and [(isoOctylSiO1.5)8]Σ8 (MS0805).\nThe middle two cuts had 50/50 SO1450+bactin antibiotic and 50/50 MS0805+bactin antibiotic.\nThe bottom left cuts had 100% bactin antibiotic and the bottom right cut had no treatment."}, "rat calvaria bone defect": {"test_system": "rat calvaria bone defect", "test": "POSS-bone samples implanted in vivo into rat calvaria as a bone defect", "conditions": "eight POSS-bone samples 5 mm in length; examined after one month"}, "bone": {"test_system": "bone", "test": "Bone formation in vitro (OsteoPOSS)", "type": "cell-based", "conditions": "FIG. 6"}, "osteoblasts": {"test_system": "osteoblasts", "test": "Osteoblast adhesion on POSS-coated titanium", "type": "cell-based", "conditions": "from Table 2 findings", "experimental": "as §1, §2, §3, §4"}}}
{"compound": "[(isoOctylSiO1.5)4(isoOctyl(OH)SiO1.0)3]Σ7 [SO1455]", "values": [{"measurement": "Fibroblast binding preference by R group on the cage", "setting": "fibroblasts", "value": "fibroplasts preferred"}, {"measurement": "Observation on product after POSS addition", "setting": "[1]; Dial Antibacterial Hand Soap", "value": "remained clear"}, {"measurement": "Observation on product after POSS addition", "setting": "[1]; Isoplus Styling Gel", "value": "became thicker"}, {"measurement": "Observation on product after POSS addition", "setting": "[1]; Ivory Hand Soap", "value": "remained clear"}, {"measurement": "Observation on product after POSS addition", "setting": "[1]; Right Guard Deodorant", "value": "became thicker"}, {"measurement": "Observation on product after POSS addition", "setting": "[1]; Suave Shampoo", "value": "remained clear"}, {"measurement": "Bleeding of cut after treatment", "setting": "[2]", "value": "did not show any bleeding"}, {"measurement": "Clotting of cut after treatment", "setting": "[2]", "value": "nor was visible clotting observed"}]}
{"compound": "O[Si]1(c2ccccc2)O[Si]2(c3ccccc3)O[Si](O)(c3ccccc3)O[Si]3(c4ccccc4)O[Si](O)(c4ccccc4)O[Si](c4ccccc4)(O1)O[Si](c1ccccc1)(O2)O3", "note": "(stereo not shown) [[(phenylSiO1.5)4(phenyl(OH)SiO1.0)3]Σ7]", "values": [{"measurement": "Appearance of bone implantation site", "setting": "rat calvaria bone defect", "value": "indistinguishable from normal rat bone"}, {"measurement": "Bone formation in vitro", "setting": "bone", "value": "form bone in vitro"}, {"measurement": "Osteoblast binding preference by R group on the cage", "setting": "osteoblasts", "value": "osteoblast exhibited a preference"}]}
{"compound": "[(isoOctylSiO1.5)8]Σ8 [MS0805]", "values": [{"measurement": "Bleeding of cut after treatment", "setting": "[2]", "value": "did not show any bleeding"}, {"measurement": "Clotting of cut after treatment", "setting": "[2]", "value": "nor was visible clotting observed"}]}
